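48-hour exposure; five concentrations; linearly interpolated endpoints. GI50 marks 50% less growth.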 Calls of active or inactive are those of the source. Rule as the data show it: active = GI50 up to about 1.1 µM and inactive = higher.
How the values were obtained:
Experiment in all cases: NCI tumour cell line growth inhibition, 48 h
[1] = test system: SW-620
[2] = test system: KM12
[3] = test system: SK-MEL-2
[4] = test system: CCRF-CEM
[5] = test system: SF-268
[6] = test system: M19-MEL
[7] = test system: NCI-H23
[8] = test system: Malme-3M
[9] = test system: M14
[10] = test system: MOLT-4
[11] = test system: OVCAR-5
[12] = test system: SF-295
[13] = test system: 786-0
[14] = test system: HL-60
[15] = test system: SK-MEL-28
[16] = test system: COLO 205
[17] = test system: A549
[18] = test system: A498
[19] = test system: BT-549
[20] = test system: T47D

| SMILES | GI50 [1] | GI50 [2] | GI50 [3] | GI50 [4] | GI50 [5] | GI50 [6] | GI50 [7] | GI50 [8] | GI50 [9] | GI50 [10] | GI50 [11] | GI50 [12] | GI50 [13] | GI50 [14] | GI50 [15] | GI50 [16] | GI50 [17] | GI50 [18] | GI50 [19] | GI50 [20] |
| --- | --- | --- | --- | --- | --- | --- | --- | --- | --- | --- | --- | --- | --- | --- | --- | --- | --- | --- | --- | --- |
| COC(=O)c1c(-c2ccccc2)sc(-c2cccc3ccccc23)c1C(=O)OC | > 100 µM (inactive) | > 100 µM (inactive) | > 100 µM (inactive) | > 100 µM (inactive) | > 100 µM (inactive) | > 100 µM (inactive) | > 100 µM (inactive) | 21.9 µM (inactive) | > 100 µM (inactive) | > 100 µM (inactive) | > 100 µM (inactive) | > 100 µM (inactive) | > 100 µM (inactive) | > 100 µM (inactive) | > 100 µM (inactive) | > 100 µM (inactive) | > 100 µM (inactive) | > 100 µM (inactive) |  |  |
| O=C1OC2C(O)COC2(O)C1(O)C(C[N+](=O)[O-])c1ccc(Cl)cc1 (stereo not drawn) | 2.71 µM (inactive) | 7.36 µM (inactive) | 15.7 µM (inactive) | 3.45 µM (inactive) | 9.79 µM (inactive) | 2.5 µM (inactive) | 6.95 µM (inactive) | 16.3 µM (inactive) | 2.58 µM (inactive) | 2.6 µM (inactive) | 16.4 µM (inactive) | 12.1 µM (inactive) | 1.82 µM (inactive) | 1.76 µM (inactive) | 3.52 µM (inactive) | 3.84 µM (inactive) | 16.5 µM (inactive) | 4.8 µM (inactive) | 6.75 µM (inactive) | 13.8 µM (inactive) |
| CCOC(=O)C1=C(O)C(=O)c2cc(C)ccc2C1=O | > 100 µM (inactive) | > 100 µM (inactive) | > 100 µM (inactive) | > 100 µM (inactive) | > 100 µM (inactive) | 16.6 µM (inactive) | 27.2 µM (inactive) | 65.3 µM (inactive) | 54.8 µM (inactive) | > 100 µM (inactive) | > 100 µM (inactive) | 54.3 µM (inactive) | > 100 µM (inactive) | > 100 µM (inactive) | > 100 µM (inactive) | 49.8 µM (inactive) | 39.4 µM (inactive) | 21.9 µM (inactive) |  |  |
| CCOP(=O)(OCC)/C(C#N)=C\c1ccc(OC(C)=O)cc1 | > 100 µM (inactive) | > 100 µM (inactive) | > 100 µM (inactive) | > 100 µM (inactive) | > 66.2 µM (inactive) | > 100 µM (inactive) | > 100 µM (inactive) | > 100 µM (inactive) | > 100 µM (inactive) | > 100 µM (inactive) | > 100 µM (inactive) | > 100 µM (inactive) | > 100 µM (inactive) | > 100 µM (inactive) | > 100 µM (inactive) | > 100 µM (inactive) | > 100 µM (inactive) | > 100 µM (inactive) |  |  |
| Cc1cc2c(=O)c3ccc(Cl)cc3[nH]c2c(C(N)=O)c1C | > 100 µM (inactive) | > 100 µM (inactive) | > 100 µM (inactive) | > 100 µM (inactive) | > 100 µM (inactive) | > 100 µM (inactive) | > 100 µM (inactive) | > 100 µM (inactive) | > 100 µM (inactive) | > 100 µM (inactive) | > 100 µM (inactive) | > 100 µM (inactive) | > 100 µM (inactive) | > 100 µM (inactive) | > 100 µM (inactive) | > 100 µM (inactive) | > 100 µM (inactive) | > 100 µM (inactive) |  |  |
| C[N+](C)(C)CC1CCCC1=O (stereo not drawn) | 0.383 µM (active) | 6.59 µM (inactive) | 5.61 µM (inactive) | 0.213 µM (active) | 9.64 µM (inactive) | 2.22 µM (inactive) | 4.45 µM (inactive) | 0.789 µM (active) | 0.929 µM (active) | 0.249 µM (active) | 8.22 µM (inactive) | 19.1 µM (inactive) | 2.34 µM (inactive) | 0.406 µM (active) | 1.89 µM (inactive) | 1.2 µM (inactive) | 19 µM (inactive) | 13.1 µM (inactive) | 1 µM (active) | 0.192 µM (active) |
| CCCN1CN(C(C(=O)N[C@@H]2C(=O)N3C2SC(C)(C)C3C(=O)O)c2ccccc2)CSC1=S (stereo partly drawn) | 16.4 µM (inactive) | > 100 µM (inactive) | > 100 µM (inactive) | 95.9 µM (inactive) | > 100 µM (inactive) | > 100 µM (inactive) | > 100 µM (inactive) | > 100 µM (inactive) | > 100 µM (inactive) | > 100 µM (inactive) | > 100 µM (inactive) | > 100 µM (inactive) | > 100 µM (inactive) | 48 µM (inactive) | > 100 µM (inactive) | 23.6 µM (inactive) | > 100 µM (inactive) | > 100 µM (inactive) |  |  |
| CCOC(=O)N[C@@H]1C(CC(=O)OC)O[C@H]2OC(C)(C)O[C@H]21 (stereo partly drawn) | > 100 µM (inactive) | > 100 µM (inactive) | > 100 µM (inactive) | > 100 µM (inactive) | > 100 µM (inactive) | > 100 µM (inactive) | > 100 µM (inactive) | > 100 µM (inactive) | > 100 µM (inactive) | > 100 µM (inactive) | > 100 µM (inactive) | > 100 µM (inactive) | > 100 µM (inactive) | > 100 µM (inactive) | > 100 µM (inactive) | > 100 µM (inactive) | > 100 µM (inactive) | > 100 µM (inactive) |  |  |

— ChEMBL document CHEMBL1201862, “PubChem BioAssay data set” (2004)
